PubChem BioAssay (NCI)
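Five compound concentrations were applied to cells in 96-well plates for 48 hours; endpoints were derived by simple linear interpolation of the resulting dose-response curve. Definition used: TGI = concentration required for complete inhibition of growth.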

Tests used:
Test in all cases: NCI anticancer screen, dose series, 48 h
786-0 renal = tested on: 786-0 renal
RXF 393 renal = tested on: RXF 393 renal
SK-MEL-28 melanoma = tested on: SK-MEL-28 melanoma
NCI-H522 lung = tested on: NCI-H522 lung
OVCAR-3 ovarian = tested on: OVCAR-3 ovarian
CAKI-1 renal = tested on: CAKI-1 renal
A498 renal = tested on: A498 renal
M14 melanoma = tested on: M14 melanoma
MOLT-4 leukemia = tested on: MOLT-4 leukemia
DMS 273 small cell lung = tested on: DMS 273 small cell lung
IGROV1 ovarian = tested on: IGROV1 ovarian
HOP-18 NSCLC = tested on: HOP-18 NSCLC
RPMI-8226 leukemia = tested on: RPMI-8226 leukemia
UO-31 renal = tested on: UO-31 renal
HS 578T breast = tested on: HS 578T breast
NCI-H23 lung = tested on: NCI-H23 lung
DLD-1 colon = tested on: DLD-1 colon
UACC-257 melanoma = tested on: UACC-257 melanoma
SNB-19 CNS = tested on: SNB-19 CNS
DU-145 prostate = tested on: DU-145 prostate
SNB-75 CNS = tested on: SNB-75 CNS
NCI/ADR-RES ovarian = tested on: NCI/ADR-RES ovarian
OVCAR-8 ovarian = tested on: OVCAR-8 ovarian
NCI-H226 lung = tested on: NCI-H226 lung
HCC-2998 colon = tested on: HCC-2998 colon
PC-3 prostate = tested on: PC-3 prostate
MALME-3M melanoma = tested on: MALME-3M melanoma
HT29 colon = tested on: HT29 colon
T-47D breast = tested on: T-47D breast
HCT-116 colon = tested on: HCT-116 colon
SK-MEL-5 melanoma = tested on: SK-MEL-5 melanoma
MDA-N = tested on: MDA-N
OVCAR-5 ovarian = tested on: OVCAR-5 ovarian
DMS 114 small cell lung = tested on: DMS 114 small cell lung
SF-539 CNS = tested on: SF-539 CNS
TK-10 renal = tested on: TK-10 renal
HL-60(TB) leukemia = tested on: HL-60(TB) leukemia
EKVX NSCLC = tested on: EKVX NSCLC
HOP-92 NSCLC = tested on: HOP-92 NSCLC
MDA-MB-435 = tested on: MDA-MB-435
OVCAR-4 ovarian = tested on: OVCAR-4 ovarian
ACHN renal = tested on: ACHN renal
LOX IMVI melanoma = tested on: LOX IMVI melanoma
SK-OV-3 ovarian = tested on: SK-OV-3 ovarian
NCI-H460 lung = tested on: NCI-H460 lung
LXFL 529 NSCLC = tested on: LXFL 529 NSCLC
SN12C renal = tested on: SN12C renal
SR leukemia = tested on: SR leukemia
SF-295 CNS = tested on: SF-295 CNS
HOP-62 NSCLC = tested on: HOP-62 NSCLC
SK-MEL-2 melanoma = tested on: SK-MEL-2 melanoma
XF 498 CNS = tested on: XF 498 CNS
KM12 colon = tested on: KM12 colon
MDA-MB-231 breast = tested on: MDA-MB-231 breast
MCF7 breast = tested on: MCF7 breast
SF-268 CNS = tested on: SF-268 CNS
BT-549 breast = tested on: BT-549 breast
M19-MEL melanoma = tested on: M19-MEL melanoma
UACC-62 melanoma = tested on: UACC-62 melanoma
HCT-15 colon = tested on: HCT-15 colon
CCRF-CEM leukemia = tested on: CCRF-CEM leukemia
A549 NSCLC = tested on: A549 NSCLC
U251 CNS = tested on: U251 CNS
KM20L2 colon = tested on: KM20L2 colon
COLO 205 colon = tested on: COLO 205 colon
K-562 leukemia = tested on: K-562 leukemia
SNB-78 CNS = tested on: SNB-78 CNS
SW-620 colon = tested on: SW-620 colon
RXF-631 renal = tested on: RXF-631 renal

Clc1cccc(N2CCN(CCN3CCc4c([nH]c5ccccc45)C3c3cccnc3)CC2)c1 (centres undefined)
TGI (786-0 renal): > 73.5 µM
TGI (RXF 393 renal): > 100 µM
TGI (SK-MEL-28 melanoma): > 100 µM
TGI (NCI-H522 lung): > 100 µM
TGI (OVCAR-3 ovarian): > 100 µM
TGI (CAKI-1 renal): > 100 µM
TGI (A498 renal): > 100 µM
TGI (M14 melanoma): > 100 µM
TGI (MOLT-4 leukemia): > 100 µM
TGI (DMS 273 small cell lung): > 100 µM
TGI (IGROV1 ovarian): > 100 µM
TGI (HOP-18 NSCLC): > 100 µM
TGI (RPMI-8226 leukemia): > 84.1 µM
TGI (UO-31 renal): > 100 µM
TGI (HS 578T breast): > 100 µM
TGI (NCI-H23 lung): > 100 µM
TGI (DLD-1 colon): > 100 µM
TGI (UACC-257 melanoma): > 100 µM
TGI (SNB-19 CNS): > 100 µM
TGI (DU-145 prostate): > 31.6 µM
TGI (SNB-75 CNS): > 76.4 µM
TGI (NCI/ADR-RES ovarian): > 100 µM
TGI (OVCAR-8 ovarian): > 100 µM
TGI (NCI-H226 lung): > 62.4 µM
TGI (HCC-2998 colon): > 76.9 µM
TGI (PC-3 prostate): > 100 µM
TGI (MALME-3M melanoma): > 100 µM
TGI (HT29 colon): > 80.4 µM
TGI (T-47D breast): > 100 µM
TGI (HCT-116 colon): > 91.3 µM
TGI (SK-MEL-5 melanoma): > 100 µM
TGI (MDA-N): > 100 µM
TGI (OVCAR-5 ovarian): > 92.1 µM
TGI (DMS 114 small cell lung): > 100 µM
TGI (SF-539 CNS): 62.9 µM
TGI (TK-10 renal): > 100 µM
TGI (HL-60(TB) leukemia): > 100 µM
TGI (EKVX NSCLC): 99.7 µM
TGI (HOP-92 NSCLC): > 86.3 µM
TGI (MDA-MB-435): > 100 µM
TGI (OVCAR-4 ovarian): > 100 µM
TGI (ACHN renal): > 100 µM
TGI (LOX IMVI melanoma): > 93.1 µM
TGI (SK-OV-3 ovarian): > 100 µM
TGI (NCI-H460 lung): > 100 µM
TGI (LXFL 529 NSCLC): > 100 µM
TGI (SN12C renal): > 92.2 µM
TGI (SR leukemia): > 100 µM
TGI (SF-295 CNS): > 100 µM
TGI (HOP-62 NSCLC): > 86.8 µM
TGI (SK-MEL-2 melanoma): > 100 µM
TGI (XF 498 CNS): > 100 µM
TGI (KM12 colon): > 100 µM
TGI (MDA-MB-231 breast): > 100 µM
TGI (MCF7 breast): > 100 µM
TGI (SF-268 CNS): > 100 µM
TGI (BT-549 breast): > 100 µM
TGI (M19-MEL melanoma): > 100 µM
TGI (UACC-62 melanoma): > 100 µM
TGI (HCT-15 colon): > 100 µM
TGI (CCRF-CEM leukemia): > 100 µM
TGI (A549 NSCLC): > 100 µM
TGI (U251 CNS): > 100 µM
TGI (KM20L2 colon): 77.8 µM
TGI (COLO 205 colon): > 84 µM
TGI (K-562 leukemia): > 65.4 µM
TGI (SNB-78 CNS): > 100 µM
TGI (SW-620 colon): > 100 µM

O=c1cc(-c2ccccc2)[nH]c2c(Cl)cccc12
TGI (786-0 renal): > 100 µM
TGI (RXF 393 renal): 67.1 µM
TGI (SK-MEL-28 melanoma): > 100 µM
TGI (OVCAR-3 ovarian): > 100 µM
TGI (A498 renal): 91.6 µM
TGI (M14 melanoma): > 100 µM
TGI (MOLT-4 leukemia): > 100 µM
TGI (DMS 273 small cell lung): > 100 µM
TGI (IGROV1 ovarian): > 100 µM
TGI (RPMI-8226 leukemia): > 100 µM
TGI (UO-31 renal): > 100 µM
TGI (NCI-H23 lung): > 100 µM
TGI (DLD-1 colon): > 100 µM
TGI (UACC-257 melanoma): > 100 µM
TGI (SNB-19 CNS): > 100 µM
TGI (SNB-75 CNS): 54.8 µM
TGI (OVCAR-8 ovarian): > 100 µM
TGI (NCI-H226 lung): 81 µM
TGI (HCC-2998 colon): > 100 µM
TGI (MALME-3M melanoma): > 100 µM
TGI (HT29 colon): > 100 µM
TGI (HCT-116 colon): > 100 µM
TGI (SK-MEL-5 melanoma): 45.4 µM
TGI (DMS 114 small cell lung): > 100 µM
TGI (SF-539 CNS): 41.7 µM
TGI (TK-10 renal): > 100 µM
TGI (HL-60(TB) leukemia): > 100 µM
TGI (EKVX NSCLC): > 100 µM
TGI (OVCAR-4 ovarian): 66.3 µM
TGI (ACHN renal): > 100 µM
TGI (LOX IMVI melanoma): > 100 µM
TGI (NCI-H460 lung): > 100 µM
TGI (LXFL 529 NSCLC): > 100 µM
TGI (SN12C renal): > 100 µM
TGI (SR leukemia): > 100 µM
TGI (SF-295 CNS): 58.5 µM
TGI (HOP-62 NSCLC): > 100 µM
TGI (SK-MEL-2 melanoma): > 100 µM
TGI (XF 498 CNS): 96.4 µM
TGI (SF-268 CNS): > 100 µM
TGI (RXF-631 renal): > 100 µM
TGI (M19-MEL melanoma): > 100 µM
TGI (UACC-62 melanoma): 67.3 µM
TGI (HCT-15 colon): > 100 µM
TGI (CCRF-CEM leukemia): > 100 µM
TGI (A549 NSCLC): > 100 µM
TGI (U251 CNS): > 100 µM
TGI (KM20L2 colon): 36 µM
TGI (COLO 205 colon): > 100 µM
TGI (K-562 leukemia): > 100 µM
TGI (SW-620 colon): > 100 µM
